Measurements reported in ChEMBL document CHEMBL3639097, “2-aryl imidazo[1,2-a]pyridine-3-acetamide derivatives, preparation methods and uses thereof” (2015).

These compounds were tested against Translocator protein (Rattus norvegicus, UniProt P16257) (assay: Competitive Binding Assay: Competitive Binding Test of Drug to the Receptor (Rat Heart TSPO) and Radioligand (3H-PK11195): (1) tubes were placed in reaction condition of 30 C.(2) all tubes were added with 20 ug of receptor protein in order;(3) the test tubes were added in order with 20 uL of drugs in certain concentrations;(4) the non-specific binding tubes were added with 20 uL of non-tagged ligand (PK11195), the final concentration of the non-tagged ligand was 0.1 mM, pre-reacted for 30 min;(5) all tubes were added in order with 25 uL 3H-PK11195, the final concentration of the labeled ligand was 1.5 nM;(6) Tris-HCl Buffer pH7.4 was used to complement the reaction volumes of all tubes to reach 200 uL;(7) the reaction was performed under 30 C. reaction condition for 1 h;(8) Then samples were applied to 49-type glass fibre filter, vacuum suction filtered, then washed with 2 ml ice-cold Tris-HCl buffer solution (50 mM Tris-HCl buffer solution, 1 mM EDTA, 5 mM MgCl2, 1 mM PMSF, 0.1% NaN3.).

Row | SMILES | IC50 | Ki
1 | CCN(Cc1ccccn1)C(=O)Cc1c(-c2ccc(Cl)c(Cl)c2)nc2cc(C)ccn12 | 21.9 nM | 9.34 nM
2 | CCN(Cc1ccccc1)C(=O)Cc1c(-c2ccc(Cl)cc2)nc2cc(C)ccn12 | 16.9 nM | 7.17 nM
3 | COCCN(Cc1ccccn1)C(=O)Cc1c(-c2ccc(Cl)c(Cl)c2)nc2cc(C)ccn12 | 15.6 nM | 6.66 nM
4 | CCN(Cc1ccncc1)C(=O)Cc1c(-c2ccc(Cl)c(Cl)c2)nc2cc(C)ccn12 | 26 nM | 11.1 nM
